Test results reported in ChEMBL document CHEMBL5344447, “A Homodimer of Withaferin A Formed by Base-Promoted Elimination of Acetic Acid from 27-O-Acetylwithaferin A Followed by a Diels-Alder Reaction” (J Nat Prod, 2024).

Legend:
[1] = tested on: LNCaP; assay: Cytotoxicity against human LNCaP cells assessed as reduction in cell proliferation by MTT assay; assay type: functional, cell-based
[2] = Cytotoxicity against human hormone nonresponsive and Castration-resistant 22Rv1 cells assessed as reduction in cell proliferation by MTT assay; assay type: functional, cell-based, Castration-resistant 22Rv1 cell
[3] = tested on: DU-145; assay: Cytotoxicity against human hormone nonresponsive DU-145 cells assessed as reduction in cell proliferation by MTT assay; assay type: functional, cell-based
[4] = tested on: PC-3; assay: Cytotoxicity against human hormone nonresponsive PC-3 cells assessed as reduction in cell proliferation by MTT assay; assay type: functional, cell-based
[5] = Cytotoxicity against human HFF cells assessed as reduction in cell proliferation by MTT assay; assay type: toxicity, cell-based

Row | SMILES | IC50 [1] | IC50 [2] | IC50 [3] | IC50 [4] | IC50 [5]
1 | CC(=O)OCC1=C(C)C[C@H]([C@@H](C)[C@H]2CC[C@H]3[C@@H]4C[C@H]5O[C@]56[C@@H](O)C=CC(=O)[C@]6(C)[C@H]4CC[C@]23C)OC1=O | 1900 nM | 1400 nM | 800 nM | 300 nM | 1900 nM
2 | C=C1C[C@@H]([C@@H](C)[C@H]2CC[C@H]3[C@@H]4C[C@H]5O[C@]56[C@@H](O)C=CC(=O)[C@]6(C)[C@H]4CC[C@]23C)OC(=O)[C@@]12CCC1=C(C[C@@H]([C@@H](C)[C@H]3CC[C@H]4[C@@H]5C[C@H]6O[C@]67[C@@H](O)C=CC(=O)[C@]7(C)[C@H]5CC[C@]34C)OC1=O)C2 | 900 nM | 1100 nM | 1000 nM | 200 nM | 600 nM
3 | C=C1C(=O)O[C@@H]([C@@H](C)[C@H]2CC[C@H]3[C@@H]4C[C@H]5O[C@]56[C@@H](OC(C)=O)C=CC(=O)[C@]6(C)[C@H]4CC[C@]23C)C=C1C | 1600 nM | 1500 nM | 2500 nM | 400 nM | 2000 nM
4 | C=C1C[C@@H]([C@@H](C)[C@H]2CC[C@H]3[C@@H]4C[C@H]5O[C@]56[C@@H](OC(C)=O)C=CC(=O)[C@]6(C)[C@H]4CC[C@]23C)OC(=O)[C@@]12CCC1=C(C[C@@H]([C@@H](C)[C@H]3CC[C@H]4[C@@H]5C[C@H]6O[C@]67[C@@H](OC(C)=O)C=CC(=O)[C@]7(C)[C@H]5CC[C@]34C)OC1=O)C2 | > 5000 nM | 2600 nM | 3700 nM | 1000 nM | 2500 nM
5 | C=C1C[C@@H]([C@@H](C)[C@H]2CC[C@H]3[C@@H]4C[C@H]5O[C@]56[C@@H](OC(=O)c5ccc([N+](=O)[O-])cc5)C=CC(=O)[C@]6(C)[C@H]4CC[C@]23C)OC(=O)[C@@]12CCC1=C(C[C@@H]([C@@H](C)[C@H]3CC[C@H]4[C@@H]5C[C@H]6O[C@]67[C@@H](OC(=O)c6ccc([N+](=O)[O-])cc6)C=CC(=O)[C@]7(C)[C@H]5CC[C@]34C)OC1=O)C2 | 2300 nM | 1100 nM | 1100 nM | 200 nM | 500 nM
6 | C=C1C(=O)O[C@@H]([C@@H](C)[C@H]2CC[C@H]3[C@@H]4C[C@H]5O[C@]56[C@@H](O)C=CC(=O)[C@]6(C)[C@H]4CC[C@]23C)C=C1C | > 5000 nM | > 5000 nM | > 5000 nM | 2200 nM | > 5000 nM
7 | COc1cccc2c1C(=O)c1c(O)c3c(c(O)c1C2=O)C[C@@](O)(C(=O)CO)C[C@@H]3O[C@H]1C[C@H](N)[C@H](O)[C@H](C)O1 [DOXORUBICIN] | 100 nM | 40 nM | 100 nM | 600 nM | 1400 nM
